Two molecules from ChEMBL document CHEMBL1149030, “Discobahamins A and B, new peptides from the Bahamian deep water marine sponge Discodermia sp” (1994) can be followed below.

The subject of assay [1] is Candida albicans. Kind of assay: Antifungal activity against yeast form of Candida albicans. The format is functional.
Assay [2] deals with Candida albicans. Description: Antifungal activity against mycelial form of Candida albicans. The format is functional.

Converted amounts (≈) assume the structure as drawn.

As to `CCC[C@@H](NC(=O)C(O)C(C)CC)C(=O)N[C@H]1CCCNC(=O)[C@H](Cc2c[nH]c3ccc(O)cc23)NC(=O)/C=C/c2coc(n2)[C@H](C)NC(=O)C(=O)[C@H](CC(C)C)NC(=O)[C@@H]2CCCN2C1=O` (some centres undefined) [DISCOBAHAMIN A], the MIC was 25 µg/mL (≈ 26.8 µM) in assay [1] and 50 µg/mL (≈ 53.6 µM) in assay [2].
For `CCC(C)C(O)C(=O)N[C@H](CC(C)C)C(=O)N[C@H]1CCCNC(=O)[C@H](Cc2c[nH]c3ccc(O)cc23)NC(=O)/C=C/c2coc(n2)[C@H](C)NC(=O)C(=O)[C@H](CC(C)C)NC(=O)[C@@H]2CCCN2C1=O` (some centres undefined) [DISCOBAHAMIN B], in that order: 25 µg/mL (≈ 26.4 µM) and 50 µg/mL (≈ 52.8 µM).

As a reminder, the MIC is the least concentration at which growth counts as inhibited.
